Values quoted from earlier work as cited in paper PMC9095539 (Clinical Pharmacokinetics, 2022).

Assays:
[1] = BCS; no reference given

CCCS(=O)(=O)N[C@H]1C[C@@H](N(C)c2ncnc3[nH]ccc23)C1 [abrocitinib, N-{cis-3-[Methyl(7H-pyrrolo[2,3-d]pyrimidin-4-yl)amino]cyclobutyl}propane-1-sulfo namide]
Eliminated unchanged in urine: 1.0–4.4% | Time to steady-state plasma concentrations (once-daily dosing): ≤ 4 days | Time to reach maximum levels (oral, healthy individuals): ≤ 1.5 h | Contribution to hepatic metabolism (CYP2C19): 53% | Contribution to hepatic metabolism (CYP2C9): 30% | Contribution to hepatic metabolism (CYP3A4): 11% | Contribution to hepatic metabolism (CYP2B6): 7% | Permeability [1]: high
